Experimental data as given in patent US12180194B2, “Multi-aziridine compound” (Covestro (Netherlands) B.V., priority 2018, dated 2024).

Key:
Bscl2-GFP = experiment: ToxTracker genotoxicity assay, Bscl2-GFP reporter induction; settings: for Genotoxicity test, With S9 rat liver extract, Bscl 2, 10 / Genotoxicity test, Without S9 rat liver extract, Bscl 2, 10: GFP induction vs vehicle at 10% cytotoxicity; for Genotoxicity test, With S9 rat liver extract, Bscl 2, 10 / Genotoxicity test, With S9 rat liver extract, Bscl 2, 25 / Genotoxicity test, With S9 rat liver extract, Bscl 2, 50: 3 h exposure with S9, 24 h recovery; for Genotoxicity test, Without S9 rat liver extract, Bscl 2, 10 / Genotoxicity test, Without S9 rat liver extract, Bscl 2, 25 / Genotoxicity test, Without S9 rat liver extract, Bscl 2, 50: 24 h exposure, no S9; for Genotoxicity test, Without S9 rat liver extract, Bscl 2, 25 / Genotoxicity test, With S9 rat liver extract, Bscl 2, 25: GFP induction vs vehicle at 25% cytotoxicity; for Genotoxicity test, Without S9 rat liver extract, Bscl 2, 50 / Genotoxicity test, With S9 rat liver extract, Bscl 2, 50: GFP induction vs vehicle at 50% cytotoxicity
Rtkn-GFP = experiment: ToxTracker genotoxicity assay, Rtkn-GFP reporter induction; settings: for Genotoxicity test, With S9 rat liver extract, Rtkn, 10 / Genotoxicity test, Without S9 rat liver extract, Rtkn, 10: GFP induction vs vehicle at 10% cytotoxicity; for Genotoxicity test, With S9 rat liver extract, Rtkn, 10 / Genotoxicity test, With S9 rat liver extract, Rtkn, 25 / Genotoxicity test, With S9 rat liver extract, Rtkn, 50: 3 h exposure with S9, 24 h recovery; for Genotoxicity test, Without S9 rat liver extract, Rtkn, 10 / Genotoxicity test, Without S9 rat liver extract, Rtkn, 25 / Genotoxicity test, Without S9 rat liver extract, Rtkn, 50: 24 h exposure, no S9; for Genotoxicity test, Without S9 rat liver extract, Rtkn, 25 / Genotoxicity test, With S9 rat liver extract, Rtkn, 25: GFP induction vs vehicle at 25% cytotoxicity; for Genotoxicity test, Without S9 rat liver extract, Rtkn, 50 / Genotoxicity test, With S9 rat liver extract, Rtkn, 50: GFP induction vs vehicle at 50% cytotoxicity

SMILES | Genotoxicity test, With S9 rat liver extract, Bscl 2, 10 (Bscl2-GFP) [fold] | Genotoxicity test, Without S9 rat liver extract, Bscl 2, 10 (Bscl2-GFP) [fold] | Genotoxicity test, Without S9 rat liver extract, Bscl 2, 25 (Bscl2-GFP) [fold] | Genotoxicity test, Without S9 rat liver extract, Bscl 2, 50 (Bscl2-GFP) [fold] | Genotoxicity test, With S9 rat liver extract, Rtkn, 10 (Rtkn-GFP) [fold] | Genotoxicity test, Without S9 rat liver extract, Rtkn, 10 (Rtkn-GFP) [fold] | Genotoxicity test, Without S9 rat liver extract, Rtkn, 25 (Rtkn-GFP) [fold] | Genotoxicity test, Without S9 rat liver extract, Rtkn, 50 (Rtkn-GFP) [fold] | Genotoxicity test, With S9 rat liver extract, Bscl 2, 25 (Bscl2-GFP) [fold] | Genotoxicity test, With S9 rat liver extract, Bscl 2, 50 (Bscl2-GFP) [fold] | Genotoxicity test, With S9 rat liver extract, Rtkn, 25 (Rtkn-GFP) [fold] | Genotoxicity test, With S9 rat liver extract, Rtkn, 50 (Rtkn-GFP) [fold]
CCCCOCC(CN1CC1C)OC(=O)NCCCCCC/N=c1\oc(=O)n(CCCCCCNC(=O)OC(COCCCC)CN2CC2C)c(=O)n1CCCCCCNC(=O)OC(COCCCC)CN1CC1C (stereo not shown) [Ex. 15] | 1.0 | 1.1 | 1.1 | 0.9 | 1.1 | 1.1 | 1.0 | 0.9 | – | – | – | –
C=CCOCC(CN1CC1C)OC(=O)NCCCCCCn1c(=O)n(CCCCCCNC(=O)OC(COCC=C)CN2CC2C)c(=O)n(CCCCCCNC(=O)OC(COCC=C)CN2CC2C)c1=O (stereo not shown) [Ex. 9] | 1.2 | 1.1 | 1.2 | 1.2 | 1.1 | 1.0 | 1.1 | 1.1 | 1.2 | 1.2 | 1.1 | 1.2
CCCCC(CC)COCC(CN1CC1C)OC(=O)NCCCCCCn1c(=O)n(CCCCCCNC(=O)OC(COCC(CC)CCCC)CN2CC2C)c(=O)n(CCCCCCNC(=O)OC(COCC(CC)CCCC)CN2CC2C)c1=O (stereo not shown) [Ex. 20] | 0.9 | 1.0 | 1.0 | 0.7 | 1.0 | 1.1 | 1.3 | 1.2 | 0.8 | 0.7 | 1.1 | 1.1
CCCCOCC(CN1CC1C)OC(=O)NCCCCCCN1C(=O)N(CCCCCCNC(=O)OC(COCCCC)CN2CC2C)C1=O (stereo not shown) [Ex. 13] | 1.2 | 1.1 | 1.3 | – | 1.4 | 1.1 | 1.2 | – | 1.2 | – | 1.6 | –
COCCOCCOCCOCCOCCOCCOCCOCCOCCOCCOCCOCCOCCOCC(CN1CC1C)OC(=O)NCCCCCCn1c(=O)n(CCCCCCNC(=O)OC(COCCOCCOCCOCCOCCOCCOCCOCCOCCOCCOCCOCCOCCOC)CN2CC2C)c(=O)n(CCCCCCNC(=O)OC(COCCOCCOCCOCCOCCOCCOCCOCCOCCOCCOCCOCCOCCOC)CN2CC2C)c1=O (stereo not shown) [Ex. 29] | 1.1 | 1.1 | 1.4 | 1.4 | 1.1 | 1.0 | 1.1 | 1.1 | 1.1 | 1.1 | 1.1 | 1.1
